Experimental data: patent US20030086869A1, “Methods and kits for diagnosing a pancreatic-based fat malabsorption disorder” (priority 2001, published 2003)

Target: T1, pancreatic lipase (Homo sapiens, UniProt P16233)
T1 construct: from tissue; host or cells: in vivo: endogenous pancreatic secretion in the small intestine of healthy adult subjects
T1 sequence (P16233 17-465): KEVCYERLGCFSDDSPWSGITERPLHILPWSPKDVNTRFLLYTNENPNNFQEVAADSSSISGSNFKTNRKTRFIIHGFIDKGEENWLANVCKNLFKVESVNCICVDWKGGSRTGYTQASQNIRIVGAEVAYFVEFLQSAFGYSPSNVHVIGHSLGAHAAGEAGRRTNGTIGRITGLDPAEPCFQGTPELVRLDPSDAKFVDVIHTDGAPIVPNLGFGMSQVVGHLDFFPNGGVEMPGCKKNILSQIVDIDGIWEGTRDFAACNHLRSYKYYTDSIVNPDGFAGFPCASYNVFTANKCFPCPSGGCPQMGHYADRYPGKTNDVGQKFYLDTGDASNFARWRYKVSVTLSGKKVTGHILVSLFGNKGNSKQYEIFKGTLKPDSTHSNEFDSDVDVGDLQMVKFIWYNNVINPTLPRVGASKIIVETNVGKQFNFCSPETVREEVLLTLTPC
T1 sequence (P04118 23-112 partner): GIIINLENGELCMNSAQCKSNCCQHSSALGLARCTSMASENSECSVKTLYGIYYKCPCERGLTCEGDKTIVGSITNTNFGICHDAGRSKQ
Test: MBT before and after Orlistat treatment in healthy adult subjects (pharmaceutically induced fat malabsorption)
Assay type: in vivo
Procedure: Analysis of the baseline and subsequent half-hourly or hourly serum samples taken for up to eight hours for the three doses of pentadecanoic acid (PA) and triglyceride containing heptadecanoic fatty acids (THA) are used to create time-dependent measured and normalized measured (see below) dosage response curves. Each concentration is analyzed independently for each subject and as a complete set for all subjects to determine the rates of absorption, distribution, and elimination for each of the measured fatty acids PA and heptadecanoic acid (HA) and the pancreatic enzyme activity for the hydrolysis of THA. The simplest model to determine a coefficient of fat absorption and an index of pancreatic enzyme activity is derived from the set of normal subjects and subsequently applied to subjects before and during therapy with a pancreatic enzyme inhibitor (Orlistat). Finally, this model is applied to subjects with CF receiving various levels of enzyme therapy to determine their coefficient of fat absorption and their index of enzymatic activity. In the simplest possible situation, the measured levels of both HA and PA are dose independent and reach an early and prolonged steady state in either whole plasma or in the chylomicron fraction. In that case, the normalized PA and HA can be compared against a CFA measured using the conventional standard 72 hour stool and diet collection method for the same patient and an appropriate conversion factor (which may be dependent upon the BMI) can be determined from the data. The ratio of the normalized HA to the normalized PA is defined as an index reflecting the pancreatic enzymatic activity profile during the absorption phase. The data is analyzed for any dependence of this index upon the patient's age or BMI. The comparisons before and after therapy with Orlistat are expected to reflect a decrease in this index of approximately 70%. […]

CCCCCCCCCCC[C@@H](C[C@@H]1OC(=O)[C@H]1CCCCCC)OC(=O)[C@H](CC(C)C)NC=O [Orlistat]
expected decrease in index of pancreatic enzymatic activity (ratio of normalized HA to normalized PA) after therapy with Orlistat (comparison before and after therapy with Orlistat, expected value of the model): approximately 70%
expected estimated pancreatic enzyme activity in the presence of Orlistat, relative to normal (unsuppressed) activity (fraction of absorbed HA versus fraction of absorbed PA, expected value of the model): about 70%
serum response of PA prior to versus after receiving Orlistat (healthy subjects, Orlistat 240 mg TID, PA 2.5 grams and THA 8.0 grams, FIG. 9): similar
